Laboratory results from US20230364070A1, “PYRROLO[3,2-C]PYRIDIN-4-ONE DERIVATIVES USEFUL IN THE TREATMENT OF CANCER” (Scorpion Therapeutics, Inc., priority 2020, published 2023).
Each block holds one molecule with its values, some of them ahead of it.

Key:
Format in all cases: cell-based
[1] = target: T1, pEGFR in Ba/F3 cells expressing EGFR exon 20 ASV Ins V769_D770 (Homo sapiens, UniProt P00533, INS769ASV); assay: Inhibitor activity on EGFR phosphorylation (pEGFR AlphaLISA, 2 h), Ba/F3 EGFR exon 20 ASV insertion; details: Ba/F3 EGFR exon 20 ASV Ins V769_D770
T1 construct: expressed in transfected cells; host or cells: Ba/F3 (murine pro-B cells), retroviral transduction, puromycin selection, IL3-independent pool

[2] = target: T2, pEGFR in Ba/F3 cells expressing EGFR exon 20 NPG Ins D770_N771 (Homo sapiens, UniProt P00533, INS770NPG); assay: Inhibitor activity on EGFR phosphorylation (pEGFR AlphaLISA, 2 h), Ba/F3 EGFR exon 20 NPG insertion; details: Ba/F3 EGFR exon 20 NPG Ins D770_N771
T2 construct: expressed in transfected cells; host or cells: Ba/F3 (murine pro-B cells), retroviral transduction, puromycin selection, IL3-independent pool

pEGFR in CUTO14 cells = target: T3, pEGFR in CUTO14 cells (Homo sapiens, UniProt P00533, DUP767-769); assay: Inhibitor activity on EGFR phosphorylation (pEGFR AlphaLISA, 2 h), CUTO14 cells
T3 construct: endogenous in cells; host or cells: CUTO14 cells
Procedure: CUTO14 cells were obtained from Dr. Robert C. Doebele at the University of Colorado.
Shake 350 rpm for 1 hr in the dark • 3.4 Prepare donor mix under low light conditions prior to use. Dispense 5 μL of donor mix to all the wells. Mix well on the shaker, seal and wrap in aluminum foil and incubate 1.5 hrs at room temperature in the dark • 3.5 Transfer 18.5 μL mixture to OptiPlate 384, and read using an Envision.

[3] = target: T4, Ba/F3 cells with EGFR exon 20 ASV Ins V769_D770 (Homo sapiens, UniProt P00533, INS769ASV); assay: EGFR activity: Ba/F3 cell viability (CellTiter-Glo, 72 h), EGFR exon 20 ASV insertion; details: EGFR exon 20 ASV Ins V769_D770, cell viability, read-out: BaF3 ASV IC50
T4 construct: expressed in transfected cells; host or cells: Ba/F3 (murine pro-B cells), retroviral transduction, puromycin selection, IL3-independent pool

Ba/F3 cells with EGFR WT = target: T5, Ba/F3 cells with EGFR WT (Homo sapiens, UniProt P00533); assay: EGFR activity: Ba/F3 cell viability (CellTiter-Glo, 72 h), EGFR WT; details: read-out: BaF3 WT IC50
T5 construct: expressed in transfected cells; host or cells: Ba/F3 (murine pro-B cells), retroviral transduction, puromycin selection, maintained with EGF

[4] = target: T6, Ba/F3 cells with EGFR exon 20 NPG Ins D770_N771 (Homo sapiens, UniProt P00533, INS770NPG); assay: EGFR activity: Ba/F3 cell viability (CellTiter-Glo, 72 h), EGFR exon 20 NPG insertion; details: EGFR exon 20 NPG Ins D770_N771, cell viability, read-out: BaF3 NPG IC50
T6 construct: expressed in transfected cells; host or cells: Ba/F3 (murine pro-B cells), retroviral transduction, puromycin selection, IL3-independent pool
T6 sequence (P00533 with tags, fused parts or gaps INS770NPG): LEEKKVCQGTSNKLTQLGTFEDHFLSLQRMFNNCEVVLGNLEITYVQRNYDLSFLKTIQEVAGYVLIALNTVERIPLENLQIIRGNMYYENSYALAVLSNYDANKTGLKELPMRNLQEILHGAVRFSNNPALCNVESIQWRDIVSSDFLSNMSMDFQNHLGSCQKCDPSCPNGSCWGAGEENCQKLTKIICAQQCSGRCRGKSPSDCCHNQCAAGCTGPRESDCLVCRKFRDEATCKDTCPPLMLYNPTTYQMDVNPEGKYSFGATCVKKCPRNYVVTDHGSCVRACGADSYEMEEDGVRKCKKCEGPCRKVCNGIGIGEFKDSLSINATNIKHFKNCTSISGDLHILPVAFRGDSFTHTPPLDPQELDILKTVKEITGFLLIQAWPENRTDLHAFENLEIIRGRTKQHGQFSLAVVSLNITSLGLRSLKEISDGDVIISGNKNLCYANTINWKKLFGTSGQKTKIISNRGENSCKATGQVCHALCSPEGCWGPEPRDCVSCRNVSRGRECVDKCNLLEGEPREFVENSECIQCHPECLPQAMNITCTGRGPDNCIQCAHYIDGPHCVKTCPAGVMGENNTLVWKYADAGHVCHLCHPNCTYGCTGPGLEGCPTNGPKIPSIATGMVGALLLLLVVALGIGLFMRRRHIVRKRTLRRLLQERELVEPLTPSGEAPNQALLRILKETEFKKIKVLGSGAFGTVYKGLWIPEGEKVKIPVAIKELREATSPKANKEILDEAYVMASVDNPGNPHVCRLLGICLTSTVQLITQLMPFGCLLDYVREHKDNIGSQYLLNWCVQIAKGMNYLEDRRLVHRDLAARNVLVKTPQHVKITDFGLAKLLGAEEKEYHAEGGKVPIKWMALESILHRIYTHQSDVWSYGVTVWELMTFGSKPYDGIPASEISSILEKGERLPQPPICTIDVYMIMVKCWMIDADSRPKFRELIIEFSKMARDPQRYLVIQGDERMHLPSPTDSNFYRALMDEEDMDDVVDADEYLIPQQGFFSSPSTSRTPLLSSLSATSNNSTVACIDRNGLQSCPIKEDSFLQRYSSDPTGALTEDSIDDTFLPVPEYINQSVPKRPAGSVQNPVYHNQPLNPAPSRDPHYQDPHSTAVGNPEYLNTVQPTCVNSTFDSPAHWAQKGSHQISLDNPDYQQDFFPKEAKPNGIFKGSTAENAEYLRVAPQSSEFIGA

T2 sequence (P00533 with tags, fused parts or gaps INS770NPG): as above
T1 sequence (P00533 with tags, fused parts or gaps INS769ASV): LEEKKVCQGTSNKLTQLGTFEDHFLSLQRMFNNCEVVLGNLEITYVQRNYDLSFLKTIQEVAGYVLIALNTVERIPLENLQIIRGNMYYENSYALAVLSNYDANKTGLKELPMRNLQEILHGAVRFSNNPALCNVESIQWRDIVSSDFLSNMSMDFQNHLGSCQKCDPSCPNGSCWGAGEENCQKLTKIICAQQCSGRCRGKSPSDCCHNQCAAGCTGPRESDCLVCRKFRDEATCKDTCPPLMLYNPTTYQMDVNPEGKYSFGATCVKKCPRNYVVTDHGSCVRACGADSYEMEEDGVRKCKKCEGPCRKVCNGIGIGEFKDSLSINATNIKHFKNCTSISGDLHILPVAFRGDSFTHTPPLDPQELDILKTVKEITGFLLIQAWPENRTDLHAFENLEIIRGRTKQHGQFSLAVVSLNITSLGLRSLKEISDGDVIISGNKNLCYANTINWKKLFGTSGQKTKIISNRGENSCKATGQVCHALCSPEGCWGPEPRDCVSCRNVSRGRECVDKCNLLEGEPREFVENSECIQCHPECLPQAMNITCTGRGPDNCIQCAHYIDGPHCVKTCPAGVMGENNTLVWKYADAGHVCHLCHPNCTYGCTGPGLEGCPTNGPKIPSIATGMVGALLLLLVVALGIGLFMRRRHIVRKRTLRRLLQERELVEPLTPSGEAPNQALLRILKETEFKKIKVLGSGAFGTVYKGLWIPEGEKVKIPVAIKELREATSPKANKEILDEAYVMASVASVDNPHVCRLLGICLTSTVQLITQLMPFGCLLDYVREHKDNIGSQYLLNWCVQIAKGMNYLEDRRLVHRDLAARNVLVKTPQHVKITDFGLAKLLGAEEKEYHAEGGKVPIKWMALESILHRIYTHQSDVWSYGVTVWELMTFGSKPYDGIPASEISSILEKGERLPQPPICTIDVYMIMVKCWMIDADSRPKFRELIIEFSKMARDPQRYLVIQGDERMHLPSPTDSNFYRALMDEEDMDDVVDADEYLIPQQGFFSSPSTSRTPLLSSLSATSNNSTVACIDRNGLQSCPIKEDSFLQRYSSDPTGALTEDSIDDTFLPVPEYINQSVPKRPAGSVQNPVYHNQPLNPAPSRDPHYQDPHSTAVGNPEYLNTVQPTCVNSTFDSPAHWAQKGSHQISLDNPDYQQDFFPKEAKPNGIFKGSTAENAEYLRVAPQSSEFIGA
T3 sequence (P00533 with tags, fused parts or gaps DUP767-769): as the sequence (P00533 with tags, fused parts or gaps INS769ASV) above

Structure (SMILES): C=CC(=O)N1CCC[C@@H]1COc1cnccc1-c1[nH]c2c(c1Nc1cccc(F)c1C)C(=O)NCC2 [Compound 140, (R)-2-(3-((1-acryloylpyrrolidin-2-yl)methoxy)pyridin-4-yl)-3-((3-fluoro-2-methylphenyl)amino)-1,5,6,7-tetrahydro-4H-pyrrolo[3,2-c]pyridin-4-one]
IC50 [1]: < 100 nM
IC50 [2]: < 100 nM
IC50 [3]: < 100 nM
IC50 (pEGFR in CUTO14 cells): < 100 nM
IC50 (Ba/F3 cells with EGFR WT): 100 to 1000 nM
IC50 [4]: < 100 nM

Structure (SMILES): C=CC(=O)N1CCC[C@H]1COc1cnccc1-c1[nH]c2c(c1Nc1cccc(F)c1C)C(=O)NCC2 [Compound 467, 3-[(3-fluoro-2-methylphenyl)amino]-2-(3-[[(2S)-1-(prop-2-enoyl)pyrrolidin-2-yl]methoxy]pyridin-4-yl)-1H,5H,6H,7H-pyrrolo[3,2-c]pyridin-4-one]
IC50 [1]: < 100 nM
IC50 [2]: < 100 nM
IC50 [3]: < 100 nM
IC50 (pEGFR in CUTO14 cells): < 100 nM
IC50 (Ba/F3 cells with EGFR WT): < 100 nM
IC50 [4]: < 100 nM

Structure (SMILES): COc1c(F)cccc1Nc1c(-c2ccncc2OCc2ccncn2)[nH]c2c1C(=O)NCC2 [Compound 478, 3-[(3-fluoro-2-methoxyphenyl)amino]-2-[3-(pyrimidin-4-ylmethoxy)pyridin-4-yl]-1H,5H,6H,7H-pyrrolo[3,2-c]pyridin-4-one]
IC50 [1]: < 100 nM
IC50 [2]: < 100 nM
IC50 [3]: < 100 nM
IC50 (Ba/F3 cells with EGFR WT): 100 to 1000 nM
IC50 [4]: < 100 nM

Structure (SMILES): COc1c(F)cccc1Nc1c(-c2ccncc2OCc2ccnn2C)[nH]c2c1C(=O)NCC2 [Compound 480, 3-[(3-fluoro-2-methoxyphenyl)amino]-2-[3-[(2-methylpyrazol-3-yl)methoxy]pyridin-4-yl]-1H,5H,6H,7H-pyrrolo[3,2-c]pyridin-4-one]
IC50 [1]: 100 to 1000 nM
IC50 [2]: < 100 nM
IC50 [3]: > 1000 nM
IC50 (Ba/F3 cells with EGFR WT): > 1000 nM
IC50 [4]: > 1000 nM

Structure (SMILES): COc1c(F)cccc1Nc1c(-c2ccncc2OCCc2ccco2)[nH]c2c1C(=O)NCC2 [Compound 483, 3-[(3-fluoro-2-methoxyphenyl)amino]-2-[3-[2-(furan-2-yl)ethoxy]pyridin-4-yl]-1H,5H,6H,7H-pyrrolo[3,2-c]pyridin-4-one]
IC50 [1]: < 100 nM
IC50 [2]: < 100 nM
IC50 [3]: 100 to 1000 nM
IC50 (Ba/F3 cells with EGFR WT): 100 to 1000 nM
IC50 [4]: < 100 nM

Structure (SMILES): C=CC(=O)NC1(C#Cc2cnccc2-c2[nH]c3c(c2Nc2cccc(Cl)c2OC)C(=O)NCC3)CC1 [compound 207, N-{1-[2-(4-{3-[(3-chloro-2-methoxyphenyl)amino]-4-oxo-1H,5H,6H,7H-pyrrolo[3,2-c]pyridin-2-yl}pyridin-3-yl)ethynyl]cyclopropyl}prop-2-enamide]
IC50 [1]: < 100 nM
IC50 [2]: < 100 nM
IC50 (pEGFR in CUTO14 cells): < 100 nM

Structure (SMILES): C=CC(=O)N1CC(F)(F)C[C@@H]1C#Cc1cnccc1-c1[nH]c2c(c1Nc1cccc(Cl)c1OC)C(=O)NCC2 [compound 519, 3-[(3-chloro-2-methoxyphenyl)amino]-2-(3-[2-[(2R)-4,4-difluoro-1-(prop-2-enoyl)pyrrolidin-2-yl]ethynyl]pyridin-4-yl)-1H,5H,6H,7H-pyrrolo[3,2-c]pyridin-4-one]
IC50 [1]: < 100 nM
IC50 [2]: < 100 nM
IC50 (pEGFR in CUTO14 cells): < 100 nM

Structure (SMILES): COc1c(Cl)cccc1Nc1c(-c2ccncc2C#CC2(C(F)(F)F)CC2)[nH]c2c1C(=O)NCC2 [compound 528, 3-[(3-chloro-2-methoxyphenyl)amino]-2-(3-[2-[1-(trifluoromethyl)cyclopropyl]ethynyl]pyridin-4-yl)-1H,5H,6H,7H-pyrrolo[3,2-c]pyridin-4-one]
IC50 [1]: < 100 nM
IC50 [2]: < 100 nM
IC50 (pEGFR in CUTO14 cells): < 100 nM

Structure (SMILES): COc1c(Cl)cccc1Nc1c(-c2ccncc2C#CC2(C(F)F)CC2)[nH]c2c1C(=O)NCC2 [compound 546]
IC50 [1]: < 100 nM
IC50 [2]: < 100 nM
IC50 [3]: < 100 nM
IC50 (pEGFR in CUTO14 cells): < 100 nM
IC50 (Ba/F3 cells with EGFR WT): 100 to 1000 nM
IC50 [4]: < 100 nM

Second part, led by results:

IC50 [1]: < 100 nM
IC50 [2]: < 100 nM
IC50 (pEGFR in CUTO14 cells): < 100 nM
Structure (SMILES): C=CC(=O)N1CC[C@H]1COc1cnccc1-c1[nH]c2c(c1Nc1cccc(Cl)c1OC)C(=O)NCC2 [145b, 3-[(3-chloro-2-methoxyphenyl)amino]-2-(3-[[(2S)-1-(prop-2-enoyl)azetidin-2-yl]methoxy]pyridin-4-yl)-1H,5H,6H,7H-pyrrolo[3,2-c]pyridin-4-one]

IC50 [1]: < 100 nM
IC50 [2]: < 100 nM
IC50 (pEGFR in CUTO14 cells): < 100 nM
Structure (SMILES): C=CC(=O)N1CC[C@@H]1COc1cnccc1-c1[nH]c2c(c1Nc1cccc(Cl)c1OC)C(=O)NCC2 [Compound 145a, (R)-2-(3-((1-acryloylazetidin-2-yl)methoxy)pyridin-4-yl)-3-((3-chloro-2-methoxyphenyl)amino)-1,5,6,7-tetrahydro-4H-pyrrolo[3,2-c]pyridin-4-one]
IC50 [3]: < 100 nM
IC50 (Ba/F3 cells with EGFR WT): 100 to 1000 nM
IC50 [4]: < 100 nM

IC50 [1]: < 100 nM
IC50 [2]: < 100 nM
IC50 (pEGFR in CUTO14 cells): < 100 nM
Structure (SMILES): C=CC(=O)N1CCC[C@H]1C#Cc1cnccc1-c1[nH]c2c(c1Nc1cccc(F)c1OC)C(=O)NCC2 [Compound 147a, (S)-2-(3-((1-acryloylpyrrolidin-2-yl)ethynyl)pyridin-4-yl)-3-((3-fluoro-2-methoxyphenyl)amino)-1,5,6,7-tetrahydro-4H-pyrrolo[3,2-c]pyridin-4-one]
IC50 [3]: < 100 nM
IC50 (Ba/F3 cells with EGFR WT): < 100 nM
IC50 [4]: < 100 nM

IC50 [1]: < 100 nM
IC50 [2]: < 100 nM
IC50 (pEGFR in CUTO14 cells): < 100 nM
Structure (SMILES): C=CC(=O)N1CCC[C@@H]1C#Cc1cnccc1-c1[nH]c2c(c1Nc1cccc(F)c1OC)C(=O)NCC2 [Compound 147b, (R)-2-(3-((1-acryloylpyrrolidin-2-yl)ethynyl)pyridin-4-yl)-3-((3-fluoro-2-methoxyphenyl)amino)-1,5,6,7-tetrahydro-4H-pyrrolo[3,2-c]pyridin-4-one]
IC50 [3]: < 100 nM
IC50 (Ba/F3 cells with EGFR WT): 100 to 1000 nM
IC50 [4]: < 100 nM
